Columns and labels:
Assay type in all cases: in vivo
Monilinia laxa (MONILA) = assay: Field assessment on brown rot of flowers in stone fruits (apricots); conditions: 5% EC + Trycol, field grown apricots, protectant
Text: A fungicidal treatment containing Compound I, applied in a 5% EC formulation and tank mixed with an adjuvant (Trycol, 50% w/w at 0.2% v/v), was sprayed twice during the flowering period on the plant canopy of apricots (PRNAR, Protici variety) at rates of 50, 100, and 150 grams of active ingredient per hectare (g ai/ha). The applications were done at 7 day intervals with disease inoculation at the last application (protectant). The treatment was part of an experimental trial designed as a randomized complete block with four replications and a plot of approximately 4.7×3.1 m, with compound I being applied using a MISTBLOW, Solo backpack applicator at a water volume of 500 L/ha. MONILA disease was evaluated on flowers on a sample of 10 pre-marked branches per tree. The number of infected flowers was counted and consequently the percent incidence was calculated. Visual infection was assessed three times during the trial at 10, 14 and 20 days after the second application. Area under the disease progress curve (AUDPC) was calculated for each plot using the sets of recorded severity data. Relative AUDPC (% control based on AUDPC) was calculated as percent of the nontreated control.

[1] = tested on: Rhizopus stolonifer (RIZPST); assay: Field microplot assessment on Rhizopus rot on peaches; conditions: field grown peaches, 17 days after first application
[2] = tested on: Podosphaera leucotricha (PODOLE); assay: Field assessment of apple powdery mildew; conditions: apples, 5% EC + ETHOMEEN T18H
Method: Assessment of compound I of PODOLE on apples was performed in two separate field trials. For the first trial, a fungicidal treatment containing a 5% EC formulation of compound I plus an adjuvant (ETHOMEEN T18H, 50% w/w at 1.0% v/v), was sprayed on the plant canopy of apples (MABSD, Imperatore Dallago variety) seven times during the growing season, the first application at BBCH 61 of plant growth stage, under natural infection of powdery mildew under open field conditions. The following six applications were applied in approximately 10 day intervals. Formulations of compound I were applied at rates of 100, 150, and 200 grams of active ingredient per hectare (g ai/ha). The treatment was part of an experimental trial designed as a randomized complete block with four replications and a plot of approximately 4.2×7.5 m. Formulations of compound I were applied at water volume of 800 L/ha, using a backpack plot sprayer (TRACKSP, Andreoli Engineering) and pressurized at 450 kPa.
For the second trial, a fungicidal treatment containing a 5% EC formulation of compound I plus an adjuvant (ETHOMEEN T18H, 50% w/w at 1.0% v/v), was sprayed on the plant canopy of apples (MABSD, Imperatore Dallago variety) seven times during the growing season, the first application at BBCH 61 of plant growth stage, under natural infection of powdery mildew under open field conditions. The following six applications were applied in approximately 10 day intervals. Formulations of compound I were applied at rates of 100, 150, and 200 grams of active ingredient per hectare (g ai/ha). The treatment was part of an experimental trial designed as a randomized complete block with four replications and a plot of approximately 4.2×7.5 m. Formulations of compound I were applied at water volume of 800 L/ha, using a self-propelled multi-plot track sprayer (TRACKSP, Andreoli Engineering) and pressurized at 450 kPa.
Disease severity in both trials was assessed as the percentage of leaf incidence and leaf infection on a random selection of 100 leaves. In the first trial, powdery mildew infection was assessed three times, 3 days after application D (3DAAD), 7DAAF, and SDAAG. In the second trial, powdery mildew infection was assessed four times, 6DAAB, 2DAAD, 7DAAF and SDAAG. Area under the disease progress curve (AUDPC) was calculated for each plot using the sets of recorded visual infection data. Relative AUDPC (% control based on AUDPC) was calculated as percent of the nontreated control.

Venturia pyrina (VENTPI) = assay: Field assessment of pear scab; conditions: pears, 15 days after final application
Text: A 10% SC formulation of Compound I was tank mixed with three different adjuvants: Agnique BP420 (50% w/w at 0.3% v/v), Ethomeen T18H (50% w/w at 0.15% v/v) and Trycol (50% w/w at 0.3% v/v). Formulations of compound I were sprayed on the plant canopy of pear trees (Highland variety) of approximately 2.5 m in height at rates of 100, 150 and 200 grams of active ingredient per hectare (g ai/ha). The trial was based on six foliar applications during the growing season at approximately 12 day intervals with natural pear scab and sooty mold infections in open field conditions. The treatment was part of an experimental trial designed as a randomized complete block with four replications and a plot of approximately 3×5 m. Formulations of compound I were applied with a SOLO mistblower sprayer at a water volume of 1500 L/ha.
For VENTPI evaluation, percent control was calculated based on incidence and severity in fruit assessment vs the nontreated control on a random selection of 50 fruits per plot. For CAPDSP assessment, percent control was calculated from percent leaf severity using Abbotts and the nontreated control. Percent control for both diseases was calculated at 11DAAE, 7DAAF and 15DAAF.

[3] = tested on: Tranzschelia discolor (TRANDI); assay: Field assessment of rust in almond; conditions: untreated 61.3
Text: A fungicidal treatment containing Compound I, applied in an SC formulation (MSO-buit in) and tank mixed with an adjuvant (Adsee C80W 80%), was sprayed on almond trees (PRNDU, Butte variety) with 2 applications at growth stages BBCH67-69 and BBCH69-72 at rates of 60, 120, 150, and 180 g ai/ha. The experimental plots were run under natural infestation. The treatments were part of an experimental trial designed as a randomized complete block (RCB) with three replications and a plot of approximately 16×22 ft. Compound I was applied at water volume of 100 gal/acre, using a motorized backpack sprayer.
Percent leaf incidence (calculated from number of visual diseased leaves per 50 leaves per one tree) was assessed and recorded at 105 days after application A (105 DAAA).

[4] = 100 g ai/ha, adjuvant Agnique BP420 (first such line, r11)
[5] = 100 g ai/ha, adjuvant Agnique BP420 (second such line, r13)
[6] = 200 g ai/ha, adjuvant Agnique BP420

COc1ccnc(C(=O)N[C@@H](C)C(=O)O[C@@H](C)C(c2ccc(F)cc2)c2ccc(F)cc2)c1OC(C)=O [Compound I, (S)-1,1-bis(4-fluorophenyl)propan-2-yl (3-acetoxy-4-methoxypicolinoyl)-L-alaninate]
% Control (AUDPC) from flower incidence assessments (Monilinia laxa (MONILA); 50 g ai/ha): B (51-75) | % Control (AUDPC) from flower incidence assessments (Monilinia laxa (MONILA); 100 g ai/ha): A (76-100) | % Control (AUDPC) from flower incidence assessments (Monilinia laxa (MONILA); 150 g ai/ha): A (76-100) | RIZPST, percentage of diseased peaches (Incidence) ([1]; 50 g ai/ha): 67.5% | RIZPST, percentage of diseased peaches (Incidence) ([1]; 100 g ai/ha): 22.5% | RIZPST, percentage of diseased peaches (Incidence) ([1]; 150 g ai/ha): 35.0% | Percent control (AUDPC) from leaf infection assessments ([2]; Trial 1, 100 g ai/ha): B (51-75) | Percent control (AUDPC) from leaf infection assessments ([2]; Trial 1, 150 g ai/ha): A (76-100) | Percent control (AUDPC) from leaf infection assessments ([2]; Trial 1, 200 g ai/ha): A (76-100) | Percent control (AUDPC) from leaf infection assessments ([2]; Trial 2, 100 g ai/ha): A (76-100) | Percent control (AUDPC) from leaf infection assessments ([2]; Trial 2, 150 g ai/ha): A (76-100) | Percent control (AUDPC) from leaf infection assessments ([2]; Trial 2, 200 g ai/ha): A (76-100) | Percent control VENTPI, incidence in fruit assessment (Venturia pyrina (VENTPI); [4]): B (51-75) | Percent control VENTPI, severity in fruit assessment (Venturia pyrina (VENTPI); [4]): B (51-75) | Percent control VENTPI, incidence in fruit assessment (Venturia pyrina (VENTPI); [5]): B (51-75) | Percent control VENTPI, severity in fruit assessment (Venturia pyrina (VENTPI); [5]): A (76-100) | Percent control VENTPI, incidence in fruit assessment (Venturia pyrina (VENTPI); 100 g ai/ha, adjuvant ETHOMEEN): C (26-50) | Percent control VENTPI, severity in fruit assessment (Venturia pyrina (VENTPI); 100 g ai/ha, adjuvant ETHOMEEN): B (51-75) | Percent control VENTPI, incidence in fruit assessment (Venturia pyrina (VENTPI); 100 g ai/ha, adjuvant None): C (26-50) | Percent control VENTPI, severity in fruit assessment (Venturia pyrina (VENTPI); 100 g ai/ha, adjuvant None): B (51-75) | Percent control VENTPI, incidence in fruit assessment (Venturia pyrina (VENTPI); 100 g ai/ha, adjuvant Trycol): B (51-75) | Percent control VENTPI, severity in fruit assessment (Venturia pyrina (VENTPI); 100 g ai/ha, adjuvant Trycol): B (51-75) | Percent control VENTPI, incidence in fruit assessment (Venturia pyrina (VENTPI); [6]): B (51-75) | Percent control VENTPI, severity in fruit assessment (Venturia pyrina (VENTPI); [6]): B (51-75) | Percent Visual Leaf Incidence of TRANDI 89 DAAB ([3]; 60 g ai/ha, MSO, 120 g ai/ha): 13.3% | Percent Visual Leaf Incidence of TRANDI 89 DAAB ([3]; 120 g ai/ha, Adsee C80W, 300 g ai/ha): 11.3% | Percent Visual Leaf Incidence of TRANDI 89 DAAB ([3]; 120 g ai/ha, MSO, 240 g ai/ha): 9.3% | Percent Visual Leaf Incidence of TRANDI 89 DAAB ([3]; 150 g ai/ha, MSO, 300 g ai/ha): 6.0% | Percent Visual Leaf Incidence of TRANDI 89 DAAB ([3]; 180 g ai/ha, MSO, 360 g ai/ha): 6.0%
